The nature of data set [1]: Stability of DT3-F2 in microsomes over 60 min, normal phase LC-fluorescence. Format: in vitro ADME, mouse. As to conditions: 37 °C, no NADPH, fluorescence detection.
Data set [2] is described as follows: Metabolic stability in mouse liver microsomes with or without NADPH.
Data set [3] can be described thus: Chemical stability in 15% aqueous NaOH. As to conditions: 30 min, data not shown. It is filed as physicochemical.
The format of data set [4] is in vitro ADME, mouse. To be noted: 1 μM, 37 °C.
A further data set is described as follows: in vitro. To be noted: mouse, microsomes.
Data set [5] in a line: Reactivity of model compound 3 with nucleophiles. Format: physicochemical.
The conditions of data set [6]: ref [2]; cited from earlier work.
The conditions of data set [7]: mouse, 1 μM, pH 7.4.
Where [8] appears, read: pH 7.4, % remaining at 30 min with NADPH.
[9] abbreviates: pH 7.4, % remaining at 30 min without NADPH.

The structures appear in SMILES notation.

With `C/C(=C\CC/C(C)=C/CC[C@]1(C)CCc2cc(O)cc(C)c2O1)CCC=C(CF)CF` [DT3-F2 (1), (R)-2-((3E,7E)-13-Fluoro-12-(fluoromethyl)-4,8-dimethyltrideca-3,7,11-trien-1-yl)-2,8-dimethylchroman-6-ol], the “Parent peak after incubation in mouse liver microsomes” value in data set [1] is reported as “no longer detectable”. For the same compound, the “Degradation in mouse liver microsomes in the presence of NADPH (in words)” value in data set [2] (with NADPH, 30 min) is recorded as “exhausted (below detection limit)”. Further, in data set [2] (without NADPH, 30 min), the “Degradation in mouse liver microsomes in the absence of NADPH (in words)” value is “exhausted (below detection limit)”. Moreover, the “Stability when stirred in 15% aqueous NaOH” value in data set [3] is recorded as “remained intact”. Further, the “Decrease of compound after incubation with active mouse liver microsomes” value in data set [4] (10 min, microsomes + buffer, no NADPH) is recorded as ~ 50%. In data set [4] (up to 10 min, NADPH present), the “Degradation with mouse liver microsomes + NADPH, compared with microsomes alone” value is “More degradation”. Further, the “Stability in buffer (PBS) alone” value in data set [4] (up to 10 min, PBS) was “stable”.
The term half-life denotes the time needed for the level to fall by half in the phase considered. A low value points to fast loss. As for `CC(C)NCC(O)COc1cccc2ccccc12` (stereo not drawn) [Propranolol], the half-life at 1 μM in the data set “in vitro” (pH 7.4) turned out to be 0.417 ± 0.16 h. For the same compound, the values for the share remaining at 0.5 h, 1 μM in the data set “in vitro” (setting [8]) and in “in vitro” (setting [9]) were 14.5 ± 10.4% and 107 ± 8.9%, respectively.
As for `C/C(=C\CS(=O)(=O)c1ccccc1)CCC=C(CF)CF` [compound 3, (E)-((8-Fluoro-7-(fluoromethyl)-3-methylocta-2,6-dien-1-yl)sulfonyl) benzene], the “Reaction with morpholine in HBD solvents” value in data set [5] (hydrogen-bond donor solvents, 70 °C, Figure S3) is on record as “able to react”. The “Reaction with N-acetyl cysteine (NAC)” value in data set [5] (nucleophilic sulfide NAC, Figure S2) is listed as “No reaction”.
On to `CC(C)=CCC/C(C)=C/CC/C(C)=C/CC[C@]1(C)CCc2cc(O)c(C)c(C)c2O1` [γ-tocotrienol], for which the Plasma elimination half-life result in data set [6] is “short”.
`CC(C)=CCC/C(C)=C/CC/C(C)=C/CC[C@]1(C)CCc2cc(O)cc(C)c2O1` [δ-Tocotrienol] had a half-life at 1 μM in data set [2] (mouse, microsomes, pH 7.4) of 1.8 ± 0.287 h. Moreover, the “Clin,u” value in data set [7] was 5240 ± 819.7 µL/min/mg. The amount remaining at 0.5 h, 1 μM in “in vitro” (setting [8]) was 63.7 ± 6.7%; in the data set “in vitro” (setting [9]), 100 ± 6.6%. Moreover, the Plasma elimination half-life result in data set [6] is given as “short”.

These data come from paper PMC7117802 (ChemMedChem, 2020).
